{"source": "patent US7014866B2", "about": "“High dose solid unit oral pharmaceutical dosage form of amorphous nelfinavir mesylate and process for making same” (Hoffmann-La Roche Inc., priority 2001, dated 2006)", "origin": "cited, not measured here", "details": "water at pH less than or equal to 4", "note": "Where a name gives a salt, the structure may show the parent alone."}
{"compound": "Cc1c(O)cccc1C(=O)N[C@@H](CSc1ccccc1)[C@H](O)CN1C[C@H]2CCCC[C@H]2C[C@H]1C(=O)NC(C)(C)C", "note": "[Nelfinavir mesylate]", "values": [{"measurement": "solubility in water", "result": "slightly soluble"}]}
